Patent publication US4740233A, “Substituted 1,2,4-triazolo[1,5-a]-pyrimidine-2-sulfonamides and compositions and methods of controlling undesired vegetation and suppressing the nitrification of ammonium nitrogen in soil” (The Dow Chemical Company, priority 1986, dated 1988)

Key:
[1] = system: nitrification of ammonium nitrogen; experiment: Suppression of nitrification of ammonium nitrogen in soil; details: 27° C.
In short: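 Value is % NH4-N remaining after a two-week, 27° C incubation of treated soil held at 1/3 bar tension moisture. Nitrate was measured with an ion-selective electrode after extraction with ammonium sulfate solution and 10 min shaking.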

[2] = system: annual sugar beet variety (SLC03); experiment: Plant growth regulator activity, preemergence; type: in vivo; details: for observed effect (preemergence): 400 ppm; for minimal effective concentration: Beta vulgaris, pre-emergence, 6-7 weeks, read-out: Bolting Inhibition (preemergence), concentration with observed effect
Description: Using a regular biennial variety, even a bolting-susceptible variety would require a cold treatment of around 10-16 weeks plus a hormone treatement in conjunction with specific light intensities. Thus, for a screening organism, we selected one which would consistently produce bolting on a regular schedule. The screen is run with an annual sugar beet variety (SLC03) provided by Dr. Richard J. Hecker, Fort Collins, Colo. This variety is an inbred which bolts in the 6- to 8-leaf stage without any need for vernalization. This allows the screen to be run entirely in the greenhouse with all 110 chemical compounds tested on one tray. The sugarbeets are grown in 3×3 inch square pots in a greenhouse sandy loam potting mix. The sugarbeets are sprayed with test compounds when they are 2 to 3 weeks old (2 true leaves). The compounds are dissolved in acetone and diluted with water containing Tween 20 as a wetting agent. The concentration of acetone in the final spray is 20% and the concentration of Tween 20 is 0.05 percent. The plants are examined for the appearance of a bolt 4 weeks after spraying.
Preemergence tests are conducted by spraying formulated chemical on seeds placed on potting soil. The sprayed seeds are then covered with 1/4 inch of potting soil and the pots are watered. Bolting is evaluated 6-7 weeks after the initiation of the test. At this time untreated plants have a vigorous bolting stem with visible flowers.

cotton = experiment: Preemergent control of plant species; type: in vivo, Gossypium spp.; details: Gossypium hirsutum, pre-emergence, 336 h; 0.25 lb/acre; read-out: percent preemergent control
In short: (§1)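 Seeds planted in good agricultural soil beds; active ingredients then applied to the bed surface as aqueous emulsion at listed rates. Beds kept two weeks in greenhouse with watering. Control scored against water-treated beds.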

rape = experiment: Preemergent control of plant species; type: in vivo, Brassica napus; details: Brassica napus, pre-emergence, 336 h; 0.25 lb/acre; read-out: percent preemergent control
In short: as §1

soybean = experiment: Preemergent control of plant species; type: in vivo, Glycine max.; details: Glycine max, pre-emergence, 336 h; 0.25 lb/acre; read-out: percent preemergent control
In short: as §1

sugar beet = experiment: Preemergent control of plant species; type: in vivo, Beta saccharifera; details: Beta vulgaris, pre-emergence, 336 h; 0.25 lb/acre; read-out: percent preemergent control
In short: as §1

jimsonweed = experiment: Preemergent control of plant species; type: in vivo, Datura stramonium; details: Datura stramonium, pre-emergence, 336 h; 0.25 lb/acre; read-out: percent preemergent control
In short: as §1

annual morning glory = experiment: Preemergent control of plant species; type: in vivo, Ipomoea spp.; details: Ipomoea, pre-emergence, 336 h; 0.25 lb/acre; read-out: percent preemergent control
In short: as §1

pigweed = experiment: Preemergent control of plant species; type: in vivo, Amaranthus spp.; details: Amaranthus retroflexus, pre-emergence, 336 h; 0.25 lb/acre; read-out: percent preemergent control
In short: as §1

velvetleaf = experiment: Preemergent control of plant species; type: in vivo, Abutilon theophrasti; details: Abutilon theophrasti, pre-emergence, 336 h; 0.25 lb/acre; read-out: percent preemergent control
In short: as §1

corn = experiment: Preemergent control of plant species; type: in vivo, Zea mays; details: Zea mays, pre-emergence, 336 h; 0.25 lb/acre; read-out: percent preemergent control
In short: as §1

rice [3] = experiment: Preemergent control of plant species; type: in vivo, Oryza sativa; details: Oryza sativa, pre-emergence, 336 h; 0.25 lb/acre; read-out: percent preemergent control
In short: as §1

sorghum = experiment: Preemergent control of plant species; type: in vivo, Sorghum vulgare; details: Sorghum, pre-emergence, 336 h; 0.25 lb/acre; read-out: percent preemergent control
In short: as §1

wheat = experiment: Preemergent control of plant species; type: in vivo, Triticum aestivum; details: Triticum aestivum, pre-emergence, 336 h; 0.25 lb/acre; read-out: percent preemergent control
In short: as §1

barnyardgrass [4] = experiment: Preemergent control of plant species; type: in vivo, Echinochloa crusgalli; details: Echinochloa crus-galli, pre-emergence, 336 h; 0.25 lb/acre; read-out: percent preemergent control
In short: as §1

crabgrass = experiment: Preemergent control of plant species; type: in vivo, Digitaria spp.; details: Digitaria sanguinalis, pre-emergence, 336 h; 0.25 lb/acre; read-out: percent preemergent control
In short: as §1

johnson grass = experiment: Preemergent control of plant species; type: in vivo, Sorghum halepense; details: Sorghum halepense, pre-emergence, 336 h; 0.25 lb/acre; read-out: percent preemergent control
In short: as §1

wild oats = experiment: Preemergent control of plant species; type: in vivo; details: Avena fatua, pre-emergence, 336 h; 0.25 lb/acre; read-out: percent preemergent control
In short: as §1

yellow foxtail = experiment: Preemergent control of plant species; type: in vivo, Setaria lutescens; details: Setaria, pre-emergence, 336 h; 0.25 lb/acre; read-out: percent preemergent control
In short: as §1

yellow nutsedge [5] = experiment: Preemergent control of plant species; type: in vivo, Cyperus esculentus; details: Cyperus, pre-emergence, 336 h; 0.25 lb/acre; read-out: percent preemergent control
In short: as §1

rice [6] = experiment: Control of aquatic plant species (paddy water); type: in vivo, Oryza sativa; details: Oryza sativa, 216 h, nine days, read-out: Percent control
In short: (§2)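 Percent control is scored nine days after treatment. Plants go into about 2 inches of soil at the 1-2 inch stage and are flooded to about 1 inch, then test compound in acetone concentrate is injected into the standing water at a volume chosen for the desired concentration.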

barnyardgrass [7] = experiment: Control of aquatic plant species (paddy water); type: in vivo, Echinochloa crusgalli; details: Echinochloa crus-galli, 216 h, nine days, read-out: Percent control
Procedure: In testing for such utility, the plant species to be tested were transplanted into 16 oz. containers into about 2 inches of soil when they were in the 1-2 inch stage and then flooded to a depth of about 1 inch. An acetone concentrate of the chemical to be tested was then injected into the paddy water, the volume injected being varied as desired to provide the desired concentration. Percent control was evaluated nine days after application.

sprangletop = experiment: Control of aquatic plant species (paddy water); type: in vivo, Leptochloa filiformis; details: Leptochloa filiformis, 216 h, nine days, read-out: Percent control
In short: as §2

yellow nutsedge [8] = experiment: Control of aquatic plant species (paddy water); type: in vivo, Cyperus esculentus; details: Cyperus, 216 h, nine days, read-out: Percent control
In short: as §2

Cc1nc2nc(S(=O)(=O)Nc3ccccc3Cl)nn2c(C)c1Cl [Compound 198]
% NH4-N Remaining After 2 Weeks Incubation ([1]; 0.06 ppm): 22% | % NH4-N Remaining After 2 Weeks Incubation ([1]; 0.25 ppm): 37% | % NH4-N Remaining After 2 Weeks Incubation ([1]; 1 ppm): 53% | % NH4-N Remaining After 2 Weeks Incubation ([1]; 4 ppm): 74% | observed effect (preemergence) [2]: stunting | minimal effective concentration [2]: 400 µg/mL

Cc1cc(C)n2nc(S(=O)(=O)Nc3ccccc3C(=O)c3ccccc3)nc2n1 [Compound 95]
% NH4-N Remaining After 2 Weeks Incubation ([1]; 0.06 ppm): 26% | % NH4-N Remaining After 2 Weeks Incubation ([1]; 0.25 ppm): 36% | % NH4-N Remaining After 2 Weeks Incubation ([1]; 1 ppm): 53% | % NH4-N Remaining After 2 Weeks Incubation ([1]; 4 ppm): 67% | minimal effective concentration [2]: 400 µg/mL

C=CCSc1ccccc1NS(=O)(=O)c1nc2nc(C)cc(C)n2n1 [Compound 66]
% NH4-N Remaining After 2 Weeks Incubation ([1]; 0.06 ppm): 0% | % NH4-N Remaining After 2 Weeks Incubation ([1]; 0.25 ppm): 41% | % NH4-N Remaining After 2 Weeks Incubation ([1]; 1 ppm): 66% | % NH4-N Remaining After 2 Weeks Incubation ([1]; 4 ppm): 78% | minimal effective concentration [2]: 400 µg/mL

CCN(C)S(=O)(=O)c1ccccc1NS(=O)(=O)c1nc2ncc(Cl)cn2n1 [Compound 132]
minimal effective concentration [2]: 400 µg/mL

Cc1cc(C)n2nc(S(=O)(=O)Nc3cc(C(F)(F)F)ccc3Cl)nc2n1 [Compound 52]
% NH4-N Remaining After 2 Weeks Incubation ([1]; 0.01 ppm): 0% | % NH4-N Remaining After 2 Weeks Incubation ([1]; 0.1 ppm): 39% | % NH4-N Remaining After 2 Weeks Incubation ([1]; 1 ppm): 74% | % NH4-N Remaining After 2 Weeks Incubation ([1]; 10 ppm): 91% | minimal effective concentration [2]: 100 µg/mL

O=S(=O)(Nc1ccccc1F)c1nc2ncc(Cl)cn2n1 [Compound 133]
observed effect (preemergence) [2]: stunting | minimal effective concentration [2]: 400 µg/mL

Cc1cc(C)n2nc(S(=O)(=O)Nc3ccccc3C#N)nc2n1 [Compound 14]
% NH4-N Remaining After 2 Weeks Incubation ([1]; 0.01 ppm): 0% | % NH4-N Remaining After 2 Weeks Incubation ([1]; 0.1 ppm): 10% | % NH4-N Remaining After 2 Weeks Incubation ([1]; 1 ppm): 52% | % NH4-N Remaining After 2 Weeks Incubation ([1]; 10 ppm): 77% | minimal effective concentration [2]: 400 µg/mL

Cc1nc2nc(S(=O)(=O)Nc3c(Cl)cccc3Cl)nn2c(C)c1C [Compound 111]
plant injury at 280.212 g/ha (cotton): 20% | plant injury at 280.212 g/ha (rape): 95% | plant injury at 280.212 g/ha (soybean): 10% | plant injury at 280.212 g/ha (sugar beet): 90% | pest or weed control at 280.212 g/ha (jimsonweed): 95% | pest or weed control at 280.212 g/ha (annual morning glory): 20% | pest or weed control at 280.212 g/ha (pigweed): 50% | pest or weed control at 280.212 g/ha (velvetleaf): 80% | plant injury at 280.212 g/ha (corn): 35% | plant injury at 280.212 g/ha (rice [3]): 65% | plant injury at 280.212 g/ha (sorghum): 65% | plant injury at 280.212 g/ha (wheat): 0% | pest or weed control at 280.212 g/ha (barnyardgrass [4]): 15% | pest or weed control at 280.212 g/ha (crabgrass): 90% | pest or weed control at 280.212 g/ha (johnson grass): 75% | pest or weed control at 280.212 g/ha (wild oats): 0% | pest or weed control at 280.212 g/ha (yellow foxtail): 30% | pest or weed control at 280.212 g/ha (yellow nutsedge [5]): 93% | pest or weed control at 4000 g/ha (rice [6]; 4.0 Kg/Ha): 93% | pest or weed control at 4000 g/ha (barnyardgrass [7]; 4.0 Kg/Ha): 99% | pest or weed control at 4000 g/ha (sprangletop; 4.0 Kg/Ha): 80% | pest or weed control at 4000 g/ha (yellow nutsedge [8]; 4.0 Kg/Ha): 99% | % NH4-N Remaining After 2 Weeks Incubation ([1]; 0.06 ppm): 22% | % NH4-N Remaining After 2 Weeks Incubation ([1]; 0.25 ppm): 60% | % NH4-N Remaining After 2 Weeks Incubation ([1]; 1 ppm): 69% | % NH4-N Remaining After 2 Weeks Incubation ([1]; 4 ppm): 92%

CCN(C)S(=O)(=O)c1ccccc1NS(=O)(=O)c1nc2nc(C)cc(C)n2n1 [Compound 16]
% NH4-N Remaining After 2 Weeks Incubation ([1]; 0.01 ppm): 0% | % NH4-N Remaining After 2 Weeks Incubation ([1]; 0.125 ppm): 0% | % NH4-N Remaining After 2 Weeks Incubation ([1]; 1 ppm): 26% | % NH4-N Remaining After 2 Weeks Incubation ([1]; 10 ppm): 67% | minimal effective concentration [2]: 400 µg/mL

COC(=O)c1cccc(C)c1NS(=O)(=O)c1nc2nc(C)cc(C)n2n1 [Compound 50]
plant injury at 280.212 g/ha (cotton): 80% | plant injury at 280.212 g/ha (rape): 95% | plant injury at 280.212 g/ha (soybean): 95% | plant injury at 280.212 g/ha (sugar beet): 100% | pest or weed control at 280.212 g/ha (jimsonweed): 100% | pest or weed control at 280.212 g/ha (annual morning glory): 80% | pest or weed control at 280.212 g/ha (pigweed): 100% | pest or weed control at 280.212 g/ha (velvetleaf): 93% | plant injury at 280.212 g/ha (corn): 99% | plant injury at 280.212 g/ha (rice [3]): 97% | plant injury at 280.212 g/ha (sorghum): 100% | plant injury at 280.212 g/ha (wheat): 100% | pest or weed control at 280.212 g/ha (barnyardgrass [4]): 95% | pest or weed control at 280.212 g/ha (crabgrass): 25% | pest or weed control at 280.212 g/ha (johnson grass): 95% | pest or weed control at 280.212 g/ha (wild oats): 60% | pest or weed control at 280.212 g/ha (yellow foxtail): 95% | pest or weed control at 280.212 g/ha (yellow nutsedge [5]): 99% | pest or weed control at 125 g/ha (rice [6]; 0.125 Kg/Ha): 97% | pest or weed control at 125 g/ha (barnyardgrass [7]; 0.125 Kg/Ha): 97% | pest or weed control at 125 g/ha (sprangletop; 0.125 Kg/Ha): 97% | pest or weed control at 125 g/ha (yellow nutsedge [8]; 0.125 Kg/Ha): 97% | % NH4-N Remaining After 2 Weeks Incubation ([1]; 0.01 ppm): 0% | % NH4-N Remaining After 2 Weeks Incubation ([1]; 0.1 ppm): 38% | % NH4-N Remaining After 2 Weeks Incubation ([1]; 1 ppm): 73% | % NH4-N Remaining After 2 Weeks Incubation ([1]; 10 ppm): 92%

CSc1cccc(NS(=O)(=O)c2nc3ncc(Cl)cn3n2)c1 [Compound 134]
observed effect (preemergence) [2]: stunting | minimal effective concentration [2]: 400 µg/mL
